Tested on: nude BALB/c mice bearing subcutaneous PC-3 tumors
Test: Biodistribution of DiR-loaded mixed micelles, whole body live imaging
Type: in vivo
Settings: tail-vein injection
Text: To test the biodistribution of the micelles of the invention, DiR, a near-infrared fluorophore, was encapsulated in MM5D micelles and administered through tail-vein intravenous injection to nude BALB/c mice bearing subcutaneous PC-3 tumors. The in vivo real-time biodistribution of the fluorophore was studied by whole body live imaging at various time points over seven days. An equivalent amount of free DiR was similarly administered to a control group of mice.
The loading of DiR in MM5D micelles was carried out according to the DOX-loading protocol described above. Briefly, polymer (10 mg) and DiR (0.3 mg) were dissolved in DMSO (2 mL) and the mixture pipetted drop-by-drop into 10 mL of deionized water, with sonification for 10 minutes. The solution was dialyzed against deionized water for 48 hours, with the water changed at 3-, 6-, and 24-hours.
PC-3 cells (5 □ 106) suspended in Matrigel (1:1 ratio) were injected subcutaneously (200 μL) into the right flank of male BALB/c mice. Five weeks post-injection, when the tumor reached 5-7 mm in diameter, mice were treated with 8 mg/kg DiR-loaded mixed micelles via tail-vein injection or an equivalent amount of free DiR.
Whole-body fluorescence images were taken using Xenogen IVIS 100 with an ICG filter (excitation 710-760 nm, emission at 810-875 nm) at time points ranging from 30 minutes to 7-days post-administration. Anesthetized animals (n=3 for micelle formulation and n=2 for free DiR) were placed ion one lateral position on a heated plate (37° C.) for image acquisition with an exposure time set to 2 seconds. Tumors and organs were removed from sacrificed mice after 7-days post-administration and then imaged.

[1] = organs removed 7-days post-administration

SMILES: CCCCCCCCCCCCCCCCCCN1/C(=C/C=C/C=C/C=C/C2=[N+](CCCCCCCCCCCCCCCCCC)c3ccccc3C2(C)C)C(C)(C)c2ccccc21.[I-] [free DiR]
- DiR signal in the subcutaneous tumor at 48-hours post-injection (8 mg/kg or equivalent free DiR): Little or no signal
- Distribution of DiR fluorescence signal at 24-hours (8 mg/kg or equivalent free DiR): concentrated strongly in the liver
- DiR signal in the tumor (FIG. 9, tumors and organs) [1]: little or no signal in the tumor
- Tissues with strongest DiR signal (FIG. 9, tumors and organs) [1]: strongest signal in the lungs, liver, and spleen
